{
  "source": "patent EP0858808B1",
  "about": "“Peptides for use in wound treatment” (Johnson & Johnson Medical Ltd., priority 1997, dated 2003)",
  "origin": "cited, not measured here",
  "system": "human fibroblast",
  "conditions": "concentration range 2.5 mM to 25 mM",
  "data": [
    {"substance": "Gly-Pro-Ala", "values": [
      {"measurement": "chemotactic activity", "value": "no chemotactic activity"}
    ]}
  ]
}
